In paper PMC9652212 (Clinical Pharmacokinetics, 2022):
Read-outs that look alike come from different tables or passages of the source.

What was measured:
[1] = type: in vivo, human
[2] = cited from earlier work
[3] = test system: CYP3A; details: cited from earlier work
[4] = test system: pooled human liver microsomes; details: MDZ and efavirenz; cited from earlier work
[5] = test system: hepatic CYP3A activity; details: time after (first) perpetrator drug administration
[6] = calculated from model parameters
[7] = metabolite in the absence of parent compound, ref Hotz et al. 27
[8] = ref Wiebe et al. 23, Tomalik-Scharte et al. 25
[9] = oral and i.v. bolus administration

OCc1ncc2n1-c1ccc(Cl)cc1C(c1ccccc1F)=NC2 [1’-OH-MDZ, 1’-hydroxymidazolam]
Elimination rate constant of 1’-OH-MDZ [1, 6]: 0.880 h⁻¹
Formation rate constant of 1’-OH-MDZ [1, 6]: 0.712 h⁻¹
IIV of 1’-OH-MDZ CL ([1]; interindividual variability): 42.0 %CV
1’-OH-MDZ CL ([1]; population estimate after metabolic conversion of MDZ): 264 L/h
1’-OH-MDZ CL, reported [2, 7]: 34.4 to 56.7 L/h
1’-OH-MDZ V, reported [2, 7]: 49.7 to 79.8 L
1’-OH-MDZ CL, reported [2, 8]: 186 to 208 L/h
1’-OH-MDZ V, reported [2, 8]: 256 to 876 L

O=C1Nc2ccc(Cl)cc2[C@@](C#CC2CC2)(C(F)(F)F)O1 [efavirenz]
Increase in MDZ CL ([3]; 12 h after efavirenz administration, ref Mikus et al. 32): 27%
Increase in metabolite formation rates [4]: ~ 1.5 fold
Time of maximum CYP3A modulatory effect [5]: 2 to 4 h

Cc1ncc2n1-c1ccc(Cl)cc1C(c1ccccc1F)=NC2 [midazolam]
Vd ([1]; human, plasma, intravenous): 56.7 L
clearance ([1]; human, plasma, intravenous): 732 mL/min
IIV of MDZ CL ([1]; interindividual variability): 21.9 %CV
IIV of MDZ volume of distribution ([1]; interindividual variability): 29.9 %CV
MDZ CL, reported [2, 9]: 15.2 to 45.0 L/h
MDZ V, reported [2, 9]: 33.3 to 180 L/h

C[C@@H](c1ncncc1F)[C@](O)(Cn1cncn1)c1ccc(F)cc1F [voriconazole]
Decrease in hepatic CYP3A activity ([3]; within 12 h after oral voriconazole, semi-physiological model): 75%
Oral bioavailability [2]: > 90%
